# Laboratory results: US6369088B2, “Substituted 3-phenyl-5-alkoxy-1,3,4-oxadiazol-2-ones, their preparation and their use as pharmaceuticals” (Aventis Pharma Deutschland GmbH, priority 2000, dated 2002)
# Where a name gives a salt, the structure may show the parent alone. Read-outs that look alike come from different tables or passages of the source.
# What was measured:
# [1] = target: T1, hormone-sensitive lipase (HSL) (Rattus norvegicus, UniProt P15304); test: HSL enzyme assay: [3H]trioleoylglycerol hydrolysis by partially purified HSL; format: biochemical
# T1 construct: Isolated rat fat cells were obtained from epididymal adipose tissue; from tissue; host or cells: rat epididymal adipose tissue (isolated fat cells, Wistar rats)
# T1 sequence (P15304 1-768 isoform P15304-2): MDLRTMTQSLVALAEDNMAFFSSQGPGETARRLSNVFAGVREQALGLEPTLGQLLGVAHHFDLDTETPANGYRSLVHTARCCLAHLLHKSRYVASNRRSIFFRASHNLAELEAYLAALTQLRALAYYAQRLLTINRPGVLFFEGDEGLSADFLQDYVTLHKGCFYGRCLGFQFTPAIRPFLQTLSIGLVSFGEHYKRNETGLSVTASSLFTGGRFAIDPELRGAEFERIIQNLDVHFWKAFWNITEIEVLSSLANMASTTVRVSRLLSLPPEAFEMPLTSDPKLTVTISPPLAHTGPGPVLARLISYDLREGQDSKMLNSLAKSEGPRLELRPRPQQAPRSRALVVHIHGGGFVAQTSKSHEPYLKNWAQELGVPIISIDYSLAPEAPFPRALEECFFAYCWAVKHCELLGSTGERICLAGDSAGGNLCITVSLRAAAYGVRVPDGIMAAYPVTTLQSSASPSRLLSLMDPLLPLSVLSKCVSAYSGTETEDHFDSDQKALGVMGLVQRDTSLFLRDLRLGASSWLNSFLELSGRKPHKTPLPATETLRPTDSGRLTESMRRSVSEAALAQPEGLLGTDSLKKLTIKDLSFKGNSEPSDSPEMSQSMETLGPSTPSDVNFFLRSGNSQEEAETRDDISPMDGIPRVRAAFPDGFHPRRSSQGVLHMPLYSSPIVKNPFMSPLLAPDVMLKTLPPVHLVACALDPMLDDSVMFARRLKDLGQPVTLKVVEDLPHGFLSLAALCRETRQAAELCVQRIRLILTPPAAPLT
# Protocol: The effect of the compounds of the invention on HSL was tested using the following enzyme assay system:
# Preparation of Partially Purified HSL:
# The fat cells from 10 rats were washed three times by flotation with 50 ml each time of homogenization buffer ([…] tris/HCl, pH 7.4, 0.25 M sucrose, 1 mM EDTA, 1 mM DTT, 10 μg/ml leupeptin, 10 μg/ml antipain, 20 μg/ml pepstatin) and finally taken up in 10 ml of homogenization buffer. The fat cells were homogenized in a Teflon-in-glass homogenizer (Braun-Melsungen) by 10 strokes at 1500 rpm and 15° C. The homogenate was centrifuged (Sorvall SM24 tubes, 5000 rpm, 10 min, 4° C.). The subnatant between the fatty layer at the top and the pellet was removed and the centrifugation was repeated. The subnatant resulting therefrom was recentrifuged (Sorvall SM24 tubes, 20000 rpm, 45 min, 4° C.). […] After the mixture had been incubated at 4° C. for 60 min (shaking at 15-min intervals), it was centrifuged (Sorvall SM24 tubes, 3000 rpm, 10 min, 4° C.). The supernatant was adjusted to pH 5.2 by adding glacial acetic acid and incubated at 4° C. for 30 min. The precipitates were collected by centrifugation (Sorvall SS34, 12000 rpm, 10 min, 4° C.) and suspended in 2.5 ml of 20 mM tris/HCl, pH 7.0,1 mM EDTA, 65 mM NaCl, 13% sucrose, 1 mM DTT, 10 μg/ml leupeptin/pepstatin/antipain. The suspension was dialyzed against 25 mM tris/HCl, pH 7.4, 50% glycerol, 1 mM DTT, 10 μg/ml leupeptin, pepstatin, antipain at 4° C. overnight and then loaded onto a hydroxy apatite column (0.1 g per 1 ml of suspension, equilibrated with 10 mM potassium phosphate, pH 7.0, 30% glycerol, 1 mM DTT). The column was washed with four volumes of equilibration buffer at a flow rate of 20 to 30 ml/h. The HSL was eluted with one volume of equilibration buffer containing 0.5 M potassium phosphate, and then dialyzed (see above) and concentrated 5- to 10-fold by ultrafiltration (Amicon Diaflo PM 10 filter) at 4° C. The partially purified HSL can be stored at −70° C. for 4 to 6 weeks.
# To prepare the substrate, 25-50 μCi of [^3H]trioleoylglycerol (in toluene), 6.8 μmol of unlabeled trioleoylglycerol and 0.6 mg of phospholipids (phosphatidylcholine/phosphatidylinositol 3:1 w/v) were mixed, dried with N2 and then taken up in 2 ml of 0.1 M KPi (pH 7.0) by ultrasonic treatment (Branson 250, microtip, setting 1-2, 2×1 min at 1-min intervals). After addition of 1 ml of KPi and renewed ultrasonic treatment (4×30 sec on ice in 30-sec intervals), 1 ml of 20% BSA (in KPi) was added (final concentration of trioleoylglycerol 1.7 mM). For the reaction, 100 μl of substrate solution were pipetted into 100 μl of HSL solution (HSL prepared as above, diluted in 20 mM KPi, pH 7.0, 1 mM EDTA, 1 mM DTT, 0.02% BSA, 20 μg/ml pepstatin, 10 μg/ml leupeptin) and incubated at 37° C. for 30 min. […] After phase separation, one equivalent of the upper phase (1 ml) was removed and the radioactivity was determined by liquid scintillation measurement.
# Substances were normally tested in four independent mixtures. The inhibition of the HSL enzymatic activity by a test substance was determined by comparison with an uninhibited control reaction. The IC50 was calculated via an inhibition plot with at least 10 concentrations of the test substance. The data was analyzed using the software package GRAPHIT, Elsevier-BIOSOFT.
# [2] = partially purified HSL from rat fat cells, [3H]trioleoylglycerol substrate, 37° C., 30 min, read-out: IC50
Compound,"IC50 [1, 2]",melting point,IC50 [1]
"COc1nn(-c2cccc(OCc3ccc(F)cc3)c2[N+](=O)[O-])c(=O)o1 [Example 22, 5-Methoxy-3-(3-(4-fluorobenzyloxy)-2-nitrophenyl)-3H-(1,3,4)oxadiazol-2-one]",1000 nM,99 °C,
"COc1nn(-c2ccc(N)c(C)c2)c(=O)o1 [Example 28, 5-Methoxy-3-(4-amino-3-methylphenyl)-3H-(1,3,4)oxadiazol-2-one]",6000 nM,114 °C,
"CCCCCCCC(=O)Nc1ccc(-n2nc(OC)oc2=O)cc1C [Example 32, 5-Methoxy-3-(4-octanoylamino-3-methylphenyl)-3H-(1,3,4)oxadiazol-2-one]",3000 nM,110 °C,
"CCCCc1ccc(S(=O)(=O)Nc2ccc(-n3nc(OC)oc3=O)cc2)cc1 [Example 34, 5-Methoxy-3-(4-(4-butylphenylsulfonylamino)phenyl)-3H-(1,3,4)oxadiazol-2-one]",1000 nM,135 °C,
"COc1nn(-c2ccc(NS(=O)(=O)c3ccc(Cl)cc3)c(C)c2)c(=O)o1 [Example 37, 5-Methoxy-3-(4-(4-chlorophenylsulfonylamino)-3-methylphenyl)-3H-(1,3,4)oxadiazol-2-one]",1000 nM,147 °C,
"COc1nn(-c2ccc(NS(=O)(=O)c3cccc4ccccc34)c(C)c2)c(=O)o1 [Example 38, 5-Methoxy-3-(4-(1-naphthylsulfonylamino)-3-methylphenyl)-3H-(1,3,4)oxadiazol-2-one]",1000 nM,123 °C,
"COc1nn(-c2ccc(NS(=O)(=O)C=Cc3ccccc3)c(C)c2)c(=O)o1 [Example 39, 5-Methoxy-3-(4-(2-phenylethenylsulfonylamino)-3-methylphenyl)-3H-(1,3,4)oxadiazol-2-one]",1000 nM,129 °C,
"COc1nn(-c2ccc(NC(=O)Nc3ccc(Cl)c(Cl)c3)c(C)c2)c(=O)o1 [Example 42, 5-Methoxy-3-(4-(3,4-dichlorophenylaminocarbonylamino)-3-methylphenyl)-3H-(1,3,4)oxadiazol-2-one]",1000 nM,210 °C,
"COc1nn(-c2ccc(NC(C)=CC(C)=O)c(C)c2)c(=O)o1 [Example 53, 5-Methoxy-3-(4-(4-oxopent-2-en-2-ylamino)-3-methylphenyl)-3H-(1,3,4)oxadiazol-2-one]",1000 nM,143 °C,
"COc1nn(-c2ccc(-n3c(C)ccc3C)c(C)c2)c(=O)o1 [Example 54, 5-Methoxy-3-(4-(2,5-dimethylpyrrol-1-yl)-3-methylphenyl)-3H-(1,3,4)oxadiazol-2-one]",1000 nM,,
"COc1nn(-c2ccc(NCc3ccc(C#N)cc3)cc2)c(=O)o1 [Example 130, 4-[[4-(5-Methoxy-2-oxo-[1,3,4]oxadiazol-3-yl)phenylamino]methyl]-benzonitrile tri-fluoroacetate]",,,500 nM

# Further molecules by falling IC50 [1, 2], results first:
"IC50 [1, 2]",melting point,Compound,IC50 [1]
800 nM,,"COc1nn(-c2cccc(NCc3ccccc3)c2)c(=O)o1 [Example 58, 5-Methoxy-3-(3-benzylaminophenyl)-3H-(1,3,4)oxadiazol-2-one]",
600 nM,,"COc1nn(-c2cccc(NC(=O)Nc3c(OC)cccc3OC)c2)c(=O)o1 [Example 128, 1-(2,6-Dimethoxyphenyl)-3-[3-(5-methoxy-2-oxo-[1,3,4]oxadiazol-3-yl)phenyl]urea]",
600 nM,,"CCCCCC=CCCCNc1cccc(-n2nc(OC)oc2=O)c1 [Example 171, 3-(3-Dec-4-enylaminophenyl)-5-methoxy-3H-[1,3,4]oxadiazol-2-one trifluoroacetate]",
500 nM,,"COc1nn(-c2ccc(NCc3ccc(OCc4ccccc4)cc3)cc2)c(=O)o1 [Example 136, 3-[4-(4-Benzyloxybenzylamino)phenyl]-5-methoxy-3H-[1,3,4]oxadiazol-2-one trifluoroacetate]",
400 nM,,"COc1nn(-c2ccc(NCC3CCCCC3)cc2)c(=O)o1 [Example 139, 3-[4-(Cyclohexylmethylamino)phenyl]-5-methoxy-3H-[1,3,4]oxadiazol-2-one]",
300 nM,161 °C,"COc1nn(-c2ccc(NC(=O)OCc3ccccc3Cl)c(C)c2)c(=O)o1 [Example 62, 5-Methoxy-3-(3-methyl-4-(2-chlorobenzyloxycarbonylamino)phenyl)-3H-(1,3,4)oxadiazol-2-one]",
250 nM,,"COc1nn(-c2ccc(NS(=O)(=O)c3ccc(OC)c(OC)c3)cc2)c(=O)o1 [Example 92, 3,4-Dimethoxy-N-[4-(5-methoxy-2-oxo-[1,3,4]oxadiazol-3-yl)-phenyl]benzenesulfon-amide]",
200 nM,155 °C,"CCCCCCCc1ccc(C(=O)Nc2ccc(-n3nc(OC)oc3=O)cc2)cc1 [Example 33, 5-Methoxy-3-(4-(4-heptylbenzoylamino)phenyl)-3H-(1,3,4)oxadiazol-2-one]",
200 nM,,"COc1nn(-c2ccc(NC(=O)OCc3ccccc3)c(OCc3ccc(F)cc3)c2)c(=O)o1 [Example 60, 5-Methoxy-3-(3-(4-fluorobenzyloxy)-4-benzyloxycarbonylaminophenyl)-3H-(1,3,4)oxadiazol-2-one]",
200 nM,,"CCCCCCOc1ccc(CNc2ccc(-n3nc(OC)oc3=O)cc2)cc1 [Example 142, 3-[4-(4-Hexyloxybenzylamino)phenyl]-5-methoxy-3H-[1,3,4]oxadiazol-2-one trifluoroacetate]",
200 nM,,"CCOc1ccccc1NC(=O)Nc1ccc(-n2nc(OC)oc2=O)cc1 [Example 152, 1-(2-Ethoxyphenyl)-3-[4-(5-methoxy-2-oxo-[1,3,4]oxadiazol-3-yl)phenyl]urea]",
120 nM,,"CCCCCCCCCCC(=O)Nc1ccc(-n2nc(OC)oc2=O)cc1 [Example 107, Undecanoic acid [4-(5-methoxy-2-oxo-[1,3,4]oxadiazol-3-yl)phenyl]amide]",
100 nM,,"COc1nn(-c2ccc(NC(=O)CCCC(=O)c3ccccc3)cc2)c(=O)o1 [Example 116, 5-Oxo-5-phenylpentanoic acid [4-(5-methoxy-2-oxo-[1,3,4]-oxadiazol-3-yl)phenyl]amide]",
30 nM,,"COc1nn(-c2ccc(NC(=O)c3ccc(C(C)(C)C)cc3)cc2)c(=O)o1 [Example 69, 5-Methoxy-3-(4-(4-t-butylbenzoylamino)phenyl)-3H-(1,3,4)oxadiazol-2-one]",
30 nM,,"COc1nn(-c2ccc(NC(=O)c3ccccc3F)cc2)c(=O)o1 [Example 97, 2-Fluoro-N-[4-(5-methoxy-2-oxo-[1,3,4]oxadiazol-3-yl)phenyl]-benzamide]",
